{"source": "patent US20230390254A1", "about": "“PHARMACEUTICAL COMPOSITIONS OF UBROGEPANT AND PROCESS FOR PREPARATION THEREOF” (Aurobindo Pharma Ltd, priority 2022, published 2023)", "origin": "cited, not measured here", "key": {"[1]": {"experiment": "not given", "remark": "listed apart in the source"}, "[2]": {"conditions": "disclosed in U.S. Pat. No. 10,117,836"}}, "note": "Like-named read-outs stand apart in the source and are kept apart here."}
{"smiles": "C[C@@H]1[C@H](c2ccccc2)C[C@H](NC(=O)c2cnc3c(c2)C[C@@]2(C3)C(=O)Nc3ncccc32)C(=O)N1CC(F)(F)F", "note": "[Ubrogepant, (3′S)—N-((3 S,5S,6R)-6-methyl-2-oxo-5-phenyl-1-(2,2,2trifluoroethyl)piperidin-3-yl)-2′-oxo-1′,2′,5,7 tetrahydrospiro[cyclopenta[b]pyridine-6,3′-pyrrolo[2,3b]pyridine]-3-carboxamide]", "values": [{"measurement": "solubility", "setting": "in acetone", "value": "freely soluble"}, {"measurement": "solubility", "setting": "in acetonitrile", "value": "freely soluble"}, {"measurement": "solubility", "setting": "in ethanol", "value": "freely soluble"}, {"measurement": "solubility", "setting": "in methanol", "value": "freely soluble"}, {"measurement": "solubility", "setting": "in water", "value": "insoluble"}, {"measurement": "solubility (BCS)", "setting": "[1]", "value": "low solubility"}, {"measurement": "aqueous solubility", "setting": "[2]", "value": "poor aqueous solubility"}]}
